Test results: ChEMBL document CHEMBL5729456, “Compounds useful in HIV therapy” (2022)

assay: Jurkat Latency Reversal Assay: Jurkat HIV-luciferase clones were maintained in RPMI medium 1640 (Gibco by Life Technologies) containing 10% (vol/vol) fetal bovine serum (SAFC/Sigma-Aldrich) and 25 units/mL penicillin, 25 units/mL streptomycin (Gibco by Life Technologies), and were split 1:4 every 3 to 4 days to maintain a cell density of ˜0.3 to 1 million cells/mL. The Jurkat clones were maintained with the addition of 500 nM EFV in the medium. Three Jurkat cell clones (C16, I15, and N6), each harboring one or two integrated HIV proviruses expressing the luciferase reporter gene, were added at equal amounts for a total of 5,000 cells per well to 384-well plates containing compound titrations. Dose-response testing was performed on compounds dissolved in dimethyl sulfoxide (DMSO, Fisher Scientific, Merelbeke, Belgium) dispensed in duplicate serial 3-fold, 14-point titrations using a D300e Digital Droplet Dispenser (Hewlett-Packard) to give final assay concentrations of 10 μM to 2.1 pM in 50 μL of medium at 0.5% DMSO (vol/vol) final concentration. Cells and compound were incubated at 37° C. for 48 hours, unless otherwise indicated, followed by the addition of 20 μL of Steady-Glo® Luciferase (Promega). Luminescence resulting from the induction of the virally expressed luciferase was measured using an EnVision 2102 Multilabel Plate Reader (Perkin Elmer). Dose-response relationships were analyzed with GraphPad PRISM 6 using a four-parameter logistic regression model to calculate the concentration of compound that gives half-maximal response (EC50) and the maximal percent activation compared to the vehicle control.

In order of falling EC50:
1. CN[C@@H](C)C(=O)N[C@H]1CCS[C@H]2CC(C)(C)[C@@H](C(=O)N[C@H]3c4ccccc4C[C@H]3C(=O)N[C@H]3CC[C@H](NC(=O)[C@@H]4Cc5ccccc5[C@@H]4NC(=O)[C@H]4N5C(=O)[C@@H](NC(=O)[C@H](C)NC)CCS[C@H]5CC4(C)C)CC3)N2C1=O  429 nM
2. CN[C@@H](C)C(=O)N[C@H]1CCS[C@H]2CC(C)(C)[C@@H](C(=O)N[C@H]3c4ccccc4CC[C@H]3C(=O)N[C@H]3CC[C@H](NC(=O)[C@@H]4CCc5ccccc5[C@@H]4NC(=O)[C@H]4N5C(=O)[C@@H](NC(=O)[C@H](C)NC)CCS[C@H]5CC4(C)C)CC3)N2C1=O  324 nM
3. CN[C@@H](C)C(=S)N[C@H]1CCS[C@H]2CC(C)(C)[C@@H](C(=O)N[C@H](C(=O)N[C@H]3CC[C@H](NC(=O)[C@@H](NC(=O)[C@H]4N5C(=O)[C@@H](NC(=S)[C@H](C)NC)CCS[C@H]5CC4(C)C)c4ccccc4)CC3)c3ccccc3)N2C1=O  89.5 nM
4. CN[C@@H](C)C(=O)N[C@H]1CCS[C@H]2CC(C)(C)[C@@H](C(=O)N[C@H](C(=O)N[C@H]3CC[C@H](NC(=O)[C@@H](NC(=O)[C@H]4N5C(=O)[C@@H](NC(=O)[C@H](C)NC)CCS[C@H]5CC4(C)C)c4ccccc4)CC3)c3ccccc3)N2C1=O  53.7 nM
5. CN[C@@H](C)C(=S)N[C@H]1CCS[C@H]2CC(C)(C)[C@@H](C(=O)N[C@H]3c4ccccc4C[C@H]3C(=O)N[C@H]3CC[C@H](NC(=O)[C@@H]4Cc5ccccc5[C@@H]4NC(=O)[C@H]4N5C(=O)[C@@H](NC(=S)[C@H](C)NC)CCS[C@H]5CC4(C)C)CC3)N2C1=O  32 nM
6. CN[C@@H](C)C(=S)N[C@H]1CCS[C@H]2CC(C)(C)[C@@H](C(=O)N[C@H]3c4ccccc4CC[C@H]3C(=O)N[C@H]3CC[C@H](NC(=O)[C@@H]4CCc5ccccc5[C@@H]4NC(=O)[C@H]4N5C(=O)[C@@H](NC(=S)[C@H](C)NC)CCS[C@H]5CC4(C)C)CC3)N2C1=O  6.8 nM
